From article PMC12394750, “2H-1,4-Benzoxazin-3(4H)-one linked 1,2,3-triazole derivatives and their study on inducing DNA damage in tumor cells” (Frontiers in Pharmacology, 2025)
Like-named read-outs stand apart in the source and are kept apart here.

What was measured:
[1] = system: HCT116 colon cancer cells; parameters: method as in Mohammed et al., 2022; settings: ref Mohammed et al., 2022; read-out: Cytotoxicity against HCT116, IC50; cited from earlier work
[2] = system: DLD-1 cancer cells; parameters: method as in Feng et al., 2010; settings: ref Feng et al., 2010; cited from earlier work
[3] = system: MV4-11 cancer cells; parameters: method as in Feng et al., 2010; settings: ref Feng et al., 2010; cited from earlier work
[4] = system: A549 cancer cells; parameters: method as in Feng et al., 2010; settings: ref Feng et al., 2010; cited from earlier work
[5] = system: A549 lung cancer cells; parameters: method as in Han et al., 2024; settings: ref Han et al., 2024; cited from earlier work
[6] = system: EGFR; parameters: method as in Sagam et al., 2024; settings: ref Sagam et al., 2024; read-out: EGFR inhibitory activity, IC50; cited from earlier work
[7] = system: Jurkat cells; parameters: method as in Pokhodylo et al., 2022; settings: ref Pokhodylo et al., 2022; cited from earlier work
[8] = system: HeLa cells; parameters: method as in Nagavelli et al., 2016; settings: ref Nagavelli et al., 2016; cited from earlier work
[9] = system: MCF-7 cells; parameters: method as in Nagavelli et al., 2016; settings: ref Nagavelli et al., 2016; cited from earlier work
[10] = system: A549 cell; parameters: method as in Zhou et al., 2014; settings: ref Zhou et al., 2014; read-out: Inhibition of A549 cell proliferation, IC50; cited from earlier work
[11] = system: Huh-7 (hepatocellular carcinoma); test: CCK-8 cell viability / IC50, Huh-7; assay type: cell-based, human; settings: 72 h; for viability at 50 µM / IC50: Homo sapiens, Huh-7; for viability at 50 µM / Activity against Huh-7 cells (in words): CCK-8, 50 μM; for IC50: CCK-8 dose-response
Protocol: (§1) To assess the cytotoxic potential of the newly synthesized compounds c1–c20, a panel of human tumor cell lines—including Huh-7 (hepatocellular carcinoma), MCF-7 (breast cancer), and A549 (lung cancer)—was treated with each compound at a concentration of 50 μM for 72 h. Cell viability and cytotoxicity were evaluated using the CCK-8 assay.
(§2) Cells were cultured in DMEM or RPMI 1640 medium with 10% FBS and 1% penicillin/streptomycin at 37 °C and 5% CO2. A CCK-8 assay was performed with several human cancer cell lines, including A549, Huh-7, MCF-7, HCT-116, and SKOV3, according to the instructions. Cells were plated at a density of 1,000–3,000 cells per well in a 96-well plate. After 24-h incubation, cells were treated with 40 μM compounds for 48 h or 50 μM compounds for 72 h. Cell viability was measured by adding 10 μL per well of CCK-8 reagent, which was dissolved in the cell culture medium, for 1 hour. Absorbance was taken at 450 nm using a microplate reader. The IC50 values of the compounds were further determined. Cells were seeded in a 96-well plate at a density of 1 × 10^3 cells/well. After adhering overnight, cells treated with […] concentrations (10 μM, 20 μM, 40 µM, or 80 μM) were used to draw the dose–response curve, and IC50 values were calculated by GraphPad Prism software. The CCK-8 assay was performed in triplicate, and each experiment was repeated at least three times. The results were expressed as mean ± SEM, and P < 0.05 was considered statistically significant.

[12] = system: MCF-7 (breast cancer); test: CCK-8 cell viability, MCF-7; assay type: cell-based; settings: Homo sapiens, MCF7, 72 h
Protocol: as §1, §2

[13] = CCK-8 cell viability, L02; assay type: cell-based; settings: human, L02 normal liver cells
[14] = system: A549 (lung cancer); test: CCK-8 cell viability, A549; assay type: cell-based; settings: Homo sapiens, 72 h
Protocol: as §1, §2

[15] = system: A549 cell; settings: Tummatorn's team, no reference given; read-out: A549 cell proliferation, IC50; cited from earlier work
[16] = target: mineralocorticoid receptor; parameters: method as in Hasui et al., 2011; settings: ref Hasui et al., 2011; read-out: Mineralocorticoid receptor antagonist IC50; cited from earlier work

Row | Structure (SMILES) | viability at 50 µM [11] | viability at 50 µM [12] | viability at 72 h, 50 µM [13] | viability at 50 µM [14] | also measured
1 | COc1cc(/C=C/C(=O)c2ccc(-n3cc(CN4CCN(c5cc6c(cc5F)c(=O)c(C(=O)O)cn6C5CC5)CC4)nn3)cc2)cc(OC)c1OC [compound 4j] |  |  |  |  | IC50 [1]: 2.53 µM
2 | O=C1COc2ccc(-c3[nH]c(-c4ccc(C(F)(F)F)cc4)nc3-c3ccccc3)cc2N1 [compound 9c] |  |  |  |  | Viability of DLD-1 cancer cells [2]: significantly reduced; Viability of MV4-11 cancer cells [3]: significantly reduced; Viability of A549 cancer cells [4]: significantly reduced
3 | C#CCCC(=O)OC1CC2[C@@]3(C)CCC(OC(=O)CCc4cn(CC(=O)OC)nn4)C(C)(C)C3CC[C@@]2(C)[C@]2(C)CCC([C@](C)(O)CCCC(C)(C)OC)C12 (stereo partly shown) [compound 6a] |  |  |  |  | Inhibitory activity against A549 [5]: strong inhibitory activity
4 | O=C(Cn1nnc(CCN2C(=O)COc3ccccc32)n1)Nc1ccc(Cl)cc1 [compound 12g] |  |  |  |  | IC50 [6]: 0.46 µM
5 | COc1cccc2c1C(=O)c1c(O)c3c(c(O)c1C2=O)C[C@@](O)(C(=O)CO)C[C@@H]3O[C@H]1C[C@H](N)[C@H](O)[C@H](C)O1 [doxorubicin] |  |  |  |  | IC50 [1]: 1.22 µM
6 | Cc1c(C(=O)Nc2ccc(SC#N)cc2)nnn1-c1ccc(C(C)C)cc1 [compound 4a] |  |  |  |  | DNA damage [7]: induce DNA damage; Mitochondrial membrane potential [7]: reduce mitochondrial membrane potential
7 | COc1cccc(-c2ccc3c(c2)OCC(=O)N3Cc2cn(-c3cc(Cl)cc(Cl)c3)nn2)c1 [compound 5b] |  |  |  |  | Cytotoxicity against HeLa, IC50 [8]: 15.38 µg/mL; Cytotoxicity against MCF-7, IC50 [9]: 17.08 µg/mL
8 | COc1cc(/C=C/C(=O)c2ccc3c(c2)NC(=O)CO3)cc(OC)c1 [compound 3c] |  |  |  |  | IC50 [10]: 3.29 µM
9 | O=C1COc2cc(NC(=O)c3cccc(-c4cn(Cc5ccc(F)c(Cl)c5)nn4)c3)ccc2N1 [compound c9, 3-(1-(3-chloro-4-fluorobenzyl)-1H-1,2,3-triazol-4-yl)-N-(3-oxo-3,4-dihydro-2H-benzo[b][1,4]oxazin-7-yl)benzamide] | 18.8 ± 0.56% | 110 ± 2.58% | 103 ± 3.98% | 86.2 ± 4.4% | IC50 [11]: 43.1 ± 2.43 µM
10 | O=C1COc2cc(NC(=O)c3cccc(-c4cn(Cc5ccc(I)cc5)nn4)c3)ccc2N1 [compound c4, 3-(1-(4-iodobenzyl)-1H-1,2,3-triazol-4-yl)-N-(3-oxo-3,4-dihydro-2H-benzo[b][1,4]oxazin-7-yl)benzamide] | 21.4 ± 4.91% | 95.9 ± 2.14% | 115.2 ± 0.81% | 94 ± 1.88% | IC50 [11]: 33.21 ± 0.11 µM
11 | O=C1COc2cc(NC(=O)c3cccc(-c4cn(Cc5c(F)cccc5F)nn4)c3)ccc2N1 [compound c10, 3-(1-(2,6-difluorobenzyl)-1H-1,2,3-triazol-4-yl)-N-(3-oxo-3,4-dihydro-2H-benzo[b][1,4]oxazin-7-yl)benzamide] | 24.9 ± 0.39% | 81.6 ± 1.46% | 68.5 ± 2.04% | 61.1 ± 3.58% | IC50 [11]: > 50 µM
12 | Fc1ccc2c(c1)C1=Nc3ccc(Br)cc3C1CN2Cc1cn(Cc2cccc(Cl)c2)nn1 (stereo not shown) [compound 11l] |  |  |  |  | IC50 [15]: 3.01 µM
13 | O=C1COc2cc(NC(=O)c3cccc(-c4cn(Cc5cccc(Cl)c5)nn4)c3)ccc2N1 [compound c2, 3-(1-(3-chlorobenzyl)-1H-1,2,3-triazol-4-yl)-N-(3-oxo-3,4-dihydro-2H-benzo[b][1,4]oxazin-7-yl)benzamide] | 17.5 ± 1.15% | 103 ± 1.63% | 103 ± 2.36% | 95.6 ± 2.98% | IC50 [11]: 33.4 ± 0.8 µM
14 | N#Cc1ccc(F)cc1Cn1cc(-c2cccc(C(=O)Nc3ccc4c(c3)OCC(=O)N4)c2)nn1 [compound c11, 3-(1-(2-cyano-5-fluorobenzyl)-1H-1,2,3-triazol-4-yl)-N-(3-oxo-3,4-dihydro-2H-benzo[b][1,4]oxazin-7-yl)benzamide] | 98 ± 1.22% | 92.96 ± 0.64% | 111 ± 2.9% | 85.4 ± 2.84% | Activity against Huh-7 cells (in words) [11]: limited activity
15 | Cc1ccccc1Cn1cc(-c2cccc(C(=O)Nc3ccc4c(c3)OCC(=O)N4)c2)nn1 [compound c20, 3-(1-(2-methylbenzyl)-1H-1,2,3-triazol-4-yl)-N-(3-oxo-3,4-dihydro-2H-benzo[b][1,4]oxazin-7-yl)benzamide] | 23.6 ± 0.25% | 112 ± 4.59% | 119.1 ± 0.57% | 97.85 ± 0.92% | IC50 [11]: 45.9 ± 0.5 µM
16 | Cc1cc(F)ccc1-n1nc(C(F)(F)F)cc1-c1ccc2c(c1)NC(=O)CO2 [compound 14n] |  |  |  |  | IC50 [16]: 0.041 µM
17 | O=C1COc2cc(NC(=O)c3cccc(-c4cn(Cc5c(Cl)cccc5Cl)nn4)c3)ccc2N1 [compound c1, 3-(1-(2,6-dichlorobenzyl)-1H-1,2,3-triazol-4-yl)-N-(3-oxo-3,4-dihydro-2H-benzo[b][1,4]oxazin-7-yl)benzamide] | 83.49 ± 0.78% | 110 ± 3.84% | 84.1 ± 1.2% | 97.4 ± 3.35% | Activity against Huh-7 cells (in words) [11]: limited activity
